Test results taken from patent US20220387377A1, “(+)-CIS TETRAHYDROCANNABINOL ((+)-CIS-THC) FOR USE AS A MEDICAMENT” (GW Research Limited, priority 2019, published 2022).
Entries after “also recorded” stand apart in the source; their conditions may differ.

Experiments:
[1] = tested on: tonic hind limb convulsions induced by MES; assay: Mouse supramaximal electroshock seizure (MES) test; type: in vivo; parameters: key to Significance of inhibition of tonic hindlimb seizures vs vehicle (Fisher's test): * p < 0.05; *** p < 0.001; ns: Ns: non significantly different from vehicle control (Fisher's test)
Method: The efficacy of (+)-cis-THC was tested in a mouse model of seizure, the maximal electroshock (MES) test.
Mice were administered MES (30 mA, rectangular current: 0.6 ms pulse width, 0.2 s duration, 50 Hz) via corneal electrodes connected to a constant current shock generator (Ugo Basile: type 7801) to reliably produce tonic hind limb convulsions. The number of tonic convulsions was recorded.
Sixteen mice were studied per group. The test was performed blind.
The test substance, (+)-cis-THC, was evaluated at 4 doses (10, 50, 100 and 150 mg/kg), administered i.p. 60 minutes before MES, and compared with a vehicle control group (administered under the same experimental conditions).
Valproate (positive control) was administered at 250 mg/kg i.p. 30 minutes before MES, was used as a reference substance and was compared with a vehicle group (administered i.p. 60 minutes before MES).
Data was analysed by comparing treated groups with the appropriate vehicle control using 2-tailed Fisher's Exact Probability tests (p<0.05 considered significant).

[2] = tested on: withdrawal threshold on hot plate set at 52° C.; assay: Mouse hotplate test (anti-nociception); type: in vivo
Method: The efficacy of (+)-cis-THC was tested in a mouse model of pain, the hotplate test.
Mice underwent a minimum habituation period of 7 days prior to study commencement. Naïve mice were acclimatised to the procedure room in their home cages, with food and water available ad libitum.
Animals were treated with either treatment vehicle, (+)-cis-THC at 1,15, 50,100, 125 and 150 mg/kg at 10 ml/kg i.p. or Morphine 10 mg/kg or Morphine vehicle (Saline) at 10 ml/kg i.p.
Animals were placed onto a hot plate set at 52° C. and time to withdrawal threshold (first response of lifting, licking front or hind paws or trying to escape) was taken at 1-hour post treatment, or at 0.5 hour after the positive control.
Animals were culled by a schedule 1 method, immediately after the measurement.
Data were analysed by comparing withdrawal thresholds back to Vehicle treated group

[3] = depending on the assay; cited from earlier work
[4] = 50 mg/kg I.P., 60 mins before MES
[5] = 100 mg/kg I.P., 60 mins before MES
[6] = 150 mg/kg I.P., 60 mins before MES
[7] = 10 mg/kg I.P., 0.5 hour after treatment, hot plate 52° C.
[8] = 250 mg/kg I.P., 30 mins before MES

SMILES: CCCCCc1cc(O)c2c(c1)OC(C)(C)[C@@H]1CCC(C)=C[C@H]21 (relative stereo) [(+)-cis-THC, (+)-cis-delta-9-tetrahydrocannabinol]
- Significance of inhibition of tonic hindlimb seizures vs vehicle (Fisher's test) ([1]; 10 mg/kg I.P., 60 mins before MES): ns
- % change from vehicle in number of tonic clonic seizures after MES [1, 4]: 18.8%
- Significance of inhibition of tonic hindlimb seizures vs vehicle (Fisher's test) [1, 4]: ns
- % change from vehicle in number of tonic clonic seizures after MES [1, 5]: 25.0%
- Significance of inhibition of tonic hindlimb seizures vs vehicle (Fisher's test) [1, 5]: ns
- % change from vehicle in number of tonic clonic seizures after MES [1, 6]: 37.5%
- Significance of inhibition of tonic hindlimb seizures vs vehicle (Fisher's test) [1, 6]: * (* p < 0.05)
- Anti-convulsant effect in the MES model (overall) ([1]; 10, 50, 100 and 150 mg/kg i.p. 60 minutes before MES): dose-related increase in the percentage change; also recorded: significant anti-convulsant effect
- Withdrawal threshold (sec) Mean +/− SEM ([2]; 1 mg/kg I.P., 1-hour post treatment, hot plate 52° C.): 10.23 ± 0.64 s
- Withdrawal threshold (sec) Mean +/− SEM ([2]; 15 mg/kg I.P., 1-hour post treatment, hot plate 52° C.): 9.96 ± 0.73 s
- Withdrawal threshold (sec) Mean +/− SEM ([2]; 50 mg/kg I.P., 1-hour post treatment, hot plate 52° C.): 9.80 ± 0.80 s
- Withdrawal threshold (sec) Mean +/− SEM ([2]; 100 mg/kg I.P., 1-hour post treatment, hot plate 52° C.): 10.67 ± 0.77 s
- Withdrawal threshold (sec) Mean +/− SEM ([2]; 125 mg/kg I.P., 1-hour post treatment, hot plate 52° C.): 11.18 ± 1.18 s
- Withdrawal threshold (sec) Mean +/− SEM ([2]; 150 mg/kg I.P., 1-hour post treatment, hot plate 52° C.): 11.68 ± 0.52 s
- Anti-nociceptive effect (withdrawal threshold compared to vehicle) ([2]; all doses tested, 1 to 150 mg/kg i.p.): none of the doses tested produced a significant difference; also recorded: no anti-nociceptive effect

SMILES: CCCCCc1cc(O)c2c(c1)OC(C)(C)[C@@H]1CCC(C)=C[C@@H]21 [(−)-trans-THC, (−)-trans-delta-9-tetrahydrocannabinol]
- Potency relative to the (+)-trans-THC isomer [3]: 6-100 times

SMILES: CN1CC[C@]23c4c5ccc(O)c4O[C@H]2[C@@H](O)C=C[C@H]3[C@H]1C5 [Morphine, reference compound]
- Significance of withdrawal threshold vs vehicle control [2, 7]: *** (*** p < 0.001 significant when compared to the corresponding vehicle control (Fisher's test).)
- Withdrawal threshold (sec) Mean +/− SEM [2, 7]: 17.48 ± 1.08 s
- Withdrawal threshold (sec) Mean +/− SEM ([2]; 10 mg/kg I.P., 0.5 hour after treatment, hot plate 52° C., listed as morphine): significant increase in the withdrawal threshold

SMILES: CCCC(CCC)C(=O)O [Valproate, reference compound]
- % change from vehicle in number of tonic clonic seizures after MES [1, 8]: 100.0%
- Significance of inhibition of tonic hindlimb seizures vs vehicle (Fisher's test) [1, 8]: *** (*** p < 0.001)
- % change from vehicle in number of tonic clonic seizures after MES ([1]; 250 mg/kg I.P., 30 mins before MES, listed as valproate): 100%
